In the experiment the test system is NLRP3 inflammasome. Kind of experiment: IL-1β Secretion Assay (NLRP3-dependent IL-1β secretion in PMA-differentiated THP-1 cells, nigericin activation, HTRF). The experiment is classed as cell-based. To be noted: Homo sapiens, THP-1, THP-1 cells, 100 ng/mL PMA 24 h, compound 20 h, 2.5 μM Nigericin 3 h; read-out: IC50 IL-1β Inhibition. Here is the method:
Cells were washed 1× with 100 ul PBS and replaced with fresh RPMI+5% FBS. Compounds were serial diluted in DMSO with 3 fold dilution for a total of 7 concentrations.
Compounds, once produced and prepared according to the present invention, can be assessed in variety of assays to characterize their activities. […] IC50 values of IL1β inhibition were calculated from the plot of percentage of inhibition versus the inhibitor concentration by a logistics fit. TABLE I depict examples of compounds according to generic Formulae I. Data which is <1 nM is listed as *****; data 1-10 nM is listed as ****; data 10-100 nM is listed as ***, data 100-300 nM is listed as **, data >300 nM is listed as *.
Background: Time-resolved FRET reads energy transfer from a long-lived donor to a nearby acceptor.
With `CCN1CCC[C@@H](Nc2nnc(-c3c(O)cc(OC(F)F)cc3F)c3cccn23)C1` [Compound I-616], the IC50 (usually the concentration at which inhibition is half-maximal) was < 1 nM.

`Oc1cc(Cl)ccc1-c1nnc(N[C@@H]2CCCN(CC(F)(F)F)C2)n2cncc12` [Compound I-558]: the IC50 fell in the range of 1 to 10 nM.

In the case of `Oc1cc(C(F)(F)F)ccc1-c1nnc(N[C@@H]2CCCOC2)n2cccc12` [Compound I-401], the IC50 lay within 100 to 300 nM.

Take `CCOC(=O)[C@@H]1CC[C@@H](Nc2nnc(-c3ccc(C(F)(F)F)cc3O)c3ccncc23)CN1C` [Compound I-318, Ethyl (2S,5R)-5-((1-(2-hydroxy-4-(trifluoromethyl)phenyl)pyrido[3,4-d]pyridazin-4-yl)amino)-1-methylpiperidine-2-carboxylate]: the IC50 is < 1 nM.

`Cc1cc(C2CC2)ccc1-c1nnc(N[C@@H]2CCCN(C)C2)c2cnccc12` [Compound I-272]: the IC50 was in the range of 1 to 10 nM.

`Oc1cc(C(F)(F)F)ccc1-c1nnc(NCCN2CCOCC2)c2ccccc12` [Compound I-108]: the IC50 was in the range of 10 to 100 nM.

Turning to `C[C@]1(O)C[C@@H](Nc2nnc(-c3ccc(C(F)(F)F)cc3OC(F)F)c3c(F)ccn23)C1` [Compound I-525], the IC50 was in the range of 10 to 100 nM.

`COC(C)(C)CNc1nnc(-c2ccc(C(F)(F)F)cc2OC(F)F)c2cccn12` [Compound I-568]: the half-inhibitory concentration (IC50) is 1 to 10 nM.

Regarding `CN1CCC[C@@H](Nc2nnc(-c3cc(OC(F)(F)F)ccc3C(F)F)c3ccncc23)C1` [Compound I-320], the IC50 was 1 to 10 nM.

As for `Oc1cc(C(F)(F)F)ccc1-c1nnc(N[C@@H]2CCCN(C3CCOCC3)C2)c2cnccc12` [Compound I-279], the IC50 is < 1 nM.

With `CN1CCN(C)CC(Nc2nnc(-c3ccc(C(F)(F)F)cc3O)c3ccncc23)C1` [Compound I-264], the IC50 fell in the range of 10 to 100 nM.

On to `FC(F)Oc1cc(C(F)(F)F)ccc1-c1nnc(N[C@@H]2CCCN(C3CCC3)C2)c2cnccc12` [Compound I-312], for which the concentration for half-maximal inhibition (IC50) was < 1 nM.

In the case of `Cc1ccc(-c2nnc(N[C@@H]3CCCN(CCO)C3)n3cccc23)c(O)c1` [Compound I-354], the half-maximal inhibitory concentration (IC50) was < 1 nM.

For `CN1CCC[C@@H](Nc2nnc(-c3ccc(Cl)cc3OC(F)F)c3ccncc23)C1` [Compound I-132], the IC50 was < 1 nM.

As to `Cc1cc(F)c(-c2nnc(N[C@@H]3CCCN(C4CCOCC4)C3)n3cccc23)c(OC(F)F)c1` [Compound I-475], the IC50 lay within 10 to 100 nM.

On to `CN1CCC[C@@H](Nc2nnc(-c3ccc(C(F)(F)F)cc3O)c3c2N(C)CCC3)C1` [Compound I-154], for which the IC50 lay in the range of 1 to 10 nM.

As for `CN1CC=C[C@@H](Nc2nnc(-c3ccc(C(F)(F)F)cc3O)c3cncn23)C1` [Compound I-460], the IC50 is 1 to 10 nM.

For the compound `Oc1cc(C(F)(F)F)ccc1-c1nnc(NC2CNCCOC2)c2ccncc12` (stereo not drawn) [Compound I-230], the half-maximal inhibitory concentration (IC50) was in the range of 10 to 100 nM.

Take `CN1C[C@H](Nc2nnc(-c3ccc(C(F)(F)F)cc3O)c3ccncc23)CC(F)(F)C1` [Compound I-265]: the IC50 was in the range of 1 to 10 nM.

`Oc1cc(C(F)(F)F)ccc1-c1nnc(N[C@H]2CCCOC2)c2cnccc12` [Compound I-310]: the IC50 was 1 to 10 nM.

Take `Oc1cc(C(F)(F)F)ccc1-c1nnc(N[C@H]2CNC[C@@H](O)C2)c2ccccc12` [Compound I-53]: the IC50 is 1 to 10 nM.

Take `Cc1cc2c(-c3ccc(C(F)(F)F)cc3OC(F)F)nnc(N[C@@H]3CCCN(C)C3)n2n1` [Compound I-330]: the IC50 is 1 to 10 nM.

With `CCN1C[C@H](F)C[C@@H](Nc2nnc(-c3ccc(C(F)(F)F)cc3OC(F)F)c3cccn23)C1` [Compound I-538], the IC50 fell in the range of 1 to 10 nM.

Consider `Cc1cc2c(-c3ccc(Br)cc3OC(F)(F)F)nnc(N[C@@H]3CCCN(C)C3)n2n1` [Compound I-374, (R)-4-(4-Bromo-2-(trifluoromethoxy)phenyl)-2-methyl-N-(1-methylpiperidin-3-yl)pyrazolo[1,5-d][1,2,4]triazin-7-amine], for which the IC50 lay within 1 to 10 nM.

Take `CN1CCC[C@@H](Nc2nnc(-c3ccc(Cl)cc3C(F)(F)F)c3ccncc23)C1` [Compound I-289]: the IC50 lay in the range of 1 to 10 nM.

As for `CN1CCC[C@@H](Nc2nnc(-c3ccc(C(F)(F)F)cc3C(F)(F)F)c3c2CCC3)C1` [Compound I-259], the IC50 was in the range of 10 to 100 nM.

Consider `CN1CCC[C@@H](Nc2nnc(-c3ccc(C(F)(F)F)cc3OC(F)F)c3ccncc23)C1` [Compound I-121], for which the IC50 is < 1 nM.

In the case of `CN1C[C@@H](F)C[C@H](Nc2nnc(-c3ccc(C(F)(F)F)cc3O)c3ccncc23)C1` [Compound I-278], the IC50 is 10 to 100 nM.

As to `CN1CCCCC1CNc1nnc(-c2ccc(C(F)(F)F)cc2O)c2ccncc12` (stereo not drawn) [Compound I-243], the IC50 was 1 to 10 nM.

As for `Oc1cc(C(F)(F)F)ccc1-c1nnc(N[C@@H]2CCC[C@H](O)C2)n2cccc12` [Compound I-399], the concentration for half-maximal inhibition (IC50) is 10 to 100 nM.

For `CCN1CCC[C@@H](Nc2nnc(-c3c(O)cc(Cl)cc3F)c3cccn23)C1` [Compound I-433], the concentration for half-maximal inhibition (IC50) was < 1 nM.

For the compound `Cc1cccc(-c2nnc(N[C@@H]3CCCN(C)C3)c3cnccc23)c1OC(F)F` [Compound I-168], the IC50 was in the range of 10 to 100 nM.

As for `CN1CCC[C@@H](Nc2nnc(-c3ccc(Cl)cc3O)c3cccn23)C1` [Compound I-355], the IC50 was < 1 nM.

Regarding `C[C@@H](O)CNc1nnc(-c2ccc(OC(F)(F)F)cc2O)c2cccn12` [Compound I-437], the IC50 is 10 to 100 nM.

Consider `Cc1ccn2c(N[C@@H]3CCCN(C)C3)nnc(-c3ccc(C(F)(F)F)cc3O)c12` [Compound I-321, (R)-2-(8-Methyl-4-((1-methylpiperidin-3-yl)amino)pyrrolo[1,2-d][1,2,4]triazin-1-yl)-5-(trifluoromethyl)phenol], for which the IC50 is 10 to 100 nM.

Turning to `C[C@]1(O)C[C@@H](Nc2nnc(-c3ccc(C(F)(F)F)cc3C(F)F)c3cccn23)C1` [Compound I-427], the IC50 was in the range of 10 to 100 nM.

Regarding `OCCN1CCC[C@@H](Nc2nnc(-c3ccc(C(F)(F)F)cc3C(F)(F)F)c3cccn23)C1` [Compound I-491], the IC50 lay within 1 to 10 nM.

In the case of `Cc1cc(C)c(-c2nnc(N[C@@H]3CCCN(C)C3)n3cccc23)c(O)c1` [Compound I-477], the IC50 lay within 1 to 10 nM.

For the compound `Oc1cc(C(F)(F)F)ccc1-c1nnc(N[C@H]2CNC[C@H](F)C2)c2cnccc12` [Compound I-306], the IC50 is < 1 nM.

Take `Oc1cc(Cl)ccc1-c1nnc(N[C@@H]2CCCOC2)n2cccc12` [Compound I-402]: the IC50 fell in the range of 10 to 100 nM.

For `C[C@]1(O)C[C@@H](Nc2nnc(-c3ccc(OC(F)F)cc3OC(F)F)c3cccn23)C1` [Compound I-573], the IC50 lay in the range of 10 to 100 nM.

As for `Cc1cc(C(F)(F)F)cc(F)c1-c1nnc(N[C@@H]2CCCN(C)C2)c2cnccc12` [Compound I-222], the IC50 was in the range of 1 to 10 nM.

Turning to `Oc1cc(C2CC2)cc(F)c1-c1nnc(N[C@@H]2CCC[C@H](O)C2)n2cccc12` [Compound I-424], the IC50 lay within 1 to 10 nM.

On to `Cc1cccc2c(N[C@@H]3CCCN(C)C3)nnc(-c3ccc(C(F)(F)F)cc3O)c12` [Compound I-8], for which the IC50 is 1 to 10 nM.

In the case of `CCN1CCC[C@@H](Nc2nnc(-c3ccc(C(F)(F)F)cc3OC(F)F)c3cnccc23)C1` [Compound I-235], the IC50 was 1 to 10 nM.

`Oc1cc(C(F)(F)F)ccc1-c1nnc(N[C@H]2CNC[C@H](O)C2)c2ccccc12` [Compound I-83]: the half-maximal inhibitory concentration (IC50) was in the range of 10 to 100 nM.

In the case of `OCCN1CCC[C@@H](Nc2nnc(-c3ccc(C(F)(F)F)cc3O)c3ccccc23)C1` [Compound I-48, 2-[4-[[(3R)-1-(2-Hydroxyethyl)-3-piperidyl]amino]phthalazin-1-yl]-5-(trifluoromethyl)phenol], the IC50 is < 1 nM.

Take `OCCN1CCC[C@@H](Nc2nnc(-c3c(O)cc(C4CC4)cc3F)c3cccn23)C1` [Compound I-379]: the IC50 is 1 to 10 nM.

Take `CC1(C)CCc2c(N[C@@H]3CCCNC3)nnc(-c3ccc(C(F)(F)F)cc3O)c21` [Compound I-45]: the IC50 lay within 1 to 10 nM.

Regarding `CC1(O)CCCC(Nc2nnc(-c3ccc(C(F)(F)F)cc3O)c3cccn23)C1` (stereo not drawn) [Compound I-450], the half-inhibitory concentration (IC50) was in the range of 10 to 100 nM.

For the compound `Cn1cc(Nc2nnc(-c3ccc(C(F)(F)F)cc3O)c3ccncc23)cn1` [Compound I-180], the half-inhibitory concentration (IC50) fell in the range of 1 to 10 nM.

Consider `CC(C)N1CCC[C@@H](Nc2nnc(-c3ccc(Cl)cc3O)c3cccn23)C1` [Compound I-404], for which the IC50 was < 1 nM.

As to `Oc1cc(C(F)(F)F)ccc1-c1nnc(N[C@@H]2CCCOC2)c2cnccc12` [Compound I-309], the IC50 lay in the range of 1 to 10 nM.

With `CN1CCC[C@@H](Nc2nnc(-c3ccc(C4CC4)cc3O)c3ccccc23)C1` [Compound I-49], the IC50 was < 1 nM.

Consider `OCCN1CCC[C@@H](Nc2nnc(-c3ccc(OC(F)(F)F)cc3OC(F)F)c3cccn23)C1` [Compound I-520], for which the IC50 was in the range of 1 to 10 nM.

With `CCN1CCC[C@H]1CNc1nnc(-c2c(O)cc(C)cc2F)c2cccn12` [Compound I-582], the IC50 is 1 to 10 nM.

Regarding `Cc1cc2c(-c3ccc(C(F)(F)F)cc3OC(F)F)nnc(N[C@@H]3CCCN(CCO)C3)n2n1` [Compound I-375, (R)-2-(3-((4-(2-(Difluoromethoxy)-4-(trifluoromethyl)phenyl)-2-methylpyrazolo[1,5-d][1,2,4]triazin-7-yl)amino)piperidin-1-yl)ethan-1-ol], the 50% inhibitory concentration (IC50) was in the range of 1 to 10 nM.

On to `C[C@]1(O)C[C@@H](Nc2nnc(-c3ccc(C(F)(F)F)cc3O)c3c(F)ccn23)C1` [Compound I-593], for which the IC50 is 1 to 10 nM.

As for `Cc1cc(O)c(-c2nnc(N[C@@H]3CCCOC3)n3cccc23)c(F)c1` [Compound I-421], the IC50 is 1 to 10 nM.

For `CN1CCC[C@@H](Nc2nnc(-c3ccc(OC(F)(F)F)cc3OC(F)F)c3cccn23)C1` [Compound I-519], the IC50 lay in the range of 1 to 10 nM.

The values are drawn from US20240262806A1, “INHIBITORS OF NLRP3” (PTC THERAPEUTICS, INC., priority 2021, published 2024).
